In patent US20250333418A1, “PURINE COMPOUNDS, COMPOSITIONS COMPRISING THEM AND USES THEREOF” (Novo Nordisk A/S, priority 2022, published 2025):

Legend:
human CB1 receptor [1] = molecular target: T1, human CB1 receptor (Homo sapiens, UniProt P21554); assay: bioSensAll GAPL-Gi2 BRET biosensor assay in HEK293 cells transfected with hCB1; test compound added before EC75-80 of agonist CP55,940 (0.1 nM); format: cell-based; conditions: vs CP55,940 0.1 nM (EC75-80), read-out: CB1 wt Gi2 IC50
T1 construct: expressed in transfected cells; host or cells: HEK293
T1 sequence (P21554 whole entry): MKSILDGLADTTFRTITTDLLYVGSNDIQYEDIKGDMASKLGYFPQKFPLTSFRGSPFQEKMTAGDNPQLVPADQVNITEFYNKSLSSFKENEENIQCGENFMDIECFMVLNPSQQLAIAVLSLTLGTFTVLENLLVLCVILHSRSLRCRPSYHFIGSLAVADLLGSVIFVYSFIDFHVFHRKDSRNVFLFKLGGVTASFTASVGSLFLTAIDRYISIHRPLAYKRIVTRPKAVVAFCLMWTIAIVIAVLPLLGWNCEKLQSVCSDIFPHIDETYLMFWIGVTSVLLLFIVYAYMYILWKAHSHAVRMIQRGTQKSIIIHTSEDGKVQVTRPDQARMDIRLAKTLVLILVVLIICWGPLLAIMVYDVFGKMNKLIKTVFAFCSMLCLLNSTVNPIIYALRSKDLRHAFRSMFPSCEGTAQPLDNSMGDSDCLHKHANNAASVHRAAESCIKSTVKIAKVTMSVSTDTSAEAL
How it was run: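 Test compounds at 12 doses up to 600 nM preceded a 0.1 nM CP55,940 challenge in hCB1/GAPL-Gi2 HEK293 cells. After overnight 37° C incubation, methoxy e-coelenterazine (2 µM final) was added and the 515/400 nm BRET ratio normalized to positive and negative controls.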

human CB1 receptor [2] = molecular target: T1, human CB1 receptor; assay: bioSensAll β-arrestin2 plasma membrane translocation (+GRK2) BRET biosensor assay in HEK293 cells transfected with hCB1; test compound added before EC75-80 of agonist CP55,940 (100 nM); format: cell-based; conditions: βArrestin2 (+GRK2) BRET biosensor, vs CP55,940 100 nM (EC75-80), read-out: CB1 wt βarr2 IC50
How it was run: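 HEK293 cells co-transfected with hCB1 and β-arrestin2 PM-translocation BRET biosensor (+GRK2); 48 h post-transfection in HBSS, test compound (0–600 nM, 12 points) added 3–5 min before CP55,940 at 100 nM (EC75-80). Overnight incubation at 37 °C; BRET (515/400 nm) read after 2 µM e-coelenterazine Prolume Purple, standardized to controls.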

| SMILES | IC50 (human CB1 receptor [1]) | IC50 (human CB1 receptor [2]) |
| --- | --- | --- |
| C[C@@H]1CN(c2nc(OCC(C)(C)O)nc3c2nc(-c2ccccc2Cl)n3-c2ccc(Cl)cc2)CCO1 [Compound 206] | 0.782 nM | 6.99 nM |
| CCOC1(C(N)=O)CCN(c2nc(OCC(C)(C)O)nc3c2nc(-c2ccccc2Cl)n3-c2ccc(Cl)cc2)CC1 [Compound 207] | 0.652 nM | 2.02 nM |
| CC(C)(O)COc1nc(N2CCS(=O)(=O)CC2)c2nc(-c3ccccc3Cl)n(-c3ccc(Cl)cc3)c2n1 [Compound 209] | 1.34 nM | 14.7 nM |
| C[C@H]1CN(c2nc(OCC(C)(C)O)nc3c2nc(-c2ccccc2Cl)n3-c2ccc(Cl)cc2)CCO1 [Compound 210] | 1.56 nM | 18.7 nM |
| C[C@H]1COCCN1c1nc(OCC(C)(C)O)nc2c1nc(-c1ccccc1Cl)n2-c1ccc(Cl)cc1 [Compound 211] | 0.943 nM | 6.86 nM |
| C[C@@H]1COCCN1c1nc(OCC(C)(C)O)nc2c1nc(-c1ccccc1Cl)n2-c1ccc(Cl)cc1 [Compound 212] | 2.51 nM | 25.9 nM |
| COC1(C(N)=O)CCN(c2nc(OCC(C)(C)O)nc3c2nc(-c2ccccc2Cl)n3-c2ccc(Cl)cc2)CC1 [Compound 213] | 1.85 nM | 7.84 nM |
| CC(C)(O)COc1nc(N2CC3CCC(C2)O3)c2nc(-c3ccccc3Cl)n(-c3ccc(Cl)cc3)c2n1 [Compound 214] | 1.09 nM | 6.06 nM |
| CC(C)OC1(C(N)=O)CCN(c2nc(OCC(C)(C)O)nc3c2nc(-c2ccccc2Cl)n3-c2ccc(Cl)cc2)CC1 [Compound 215] | 0.707 nM | 1.64 nM |
| CC(C)(O)COc1nc(N2CCC(C)(C(=O)O)CC2)c2nc(-c3ccccc3Cl)n(-c3ccc(Cl)cc3)c2n1 [Compound 220] | 3.47 nM | 23.2 nM |
| CC(C)(O)COc1nc(N2CCNCC(F)(F)C2)c2nc(-c3ccccc3Cl)n(-c3ccc(Cl)cc3)c2n1 [Compound 221] | 4.04 nM | 30.6 nM |
| CC(=O)N1CCN(c2nc(OCC(C)(C)O)nc3c2nc(-c2ccccc2Cl)n3-c2ccc(Cl)cc2)CC1 [Compound 222] | 1.56 nM | 7.91 nM |
| CC1(C(N)=O)CCN(c2nc(N3CC[C@@](C)(O)C3)nc3c2nc(-c2ccccc2Cl)n3-c2ccc(Cl)cc2)CC1 [Compound 223] | 0.916 nM | 2.8 nM |
| COC(=O)N1CCN(c2nc(OCC(C)(C)O)nc3c2nc(-c2ccccc2Cl)n3-c2ccc(Cl)cc2)CC1 [Compound 224] | 1.27 nM | 7.99 nM |
| CC(=O)NC1(C)CCN(c2nc(OCC(C)(C)O)nc3c2nc(-c2ccccc2Cl)n3-c2ccc(Cl)cc2)CC1 [Compound 226] | 0.767 nM | 2.31 nM |
| CN1CCN(c2nc(OCC(C)(C)O)nc3c2nc(-c2ccccc2Cl)n3-c2ccc(Cl)cc2)CC1 [Compound 227] | 4.78 nM | 11.7 nM |
| CN1C[C@H](F)C[C@H]1COc1nc(N2CCC(C)(C(N)=O)CC2)c2nc(-c3ccccc3Cl)n(-c3ccc(Cl)cc3)c2n1 [Compound 228] | 1.2 nM | 2.29 nM |
| CN1C[C@H](F)C[C@H]1COc1nc(N2CCC(C)(C(N)=O)CC2)c2nc(-c3ccccc3Cl)n(-c3ccc(Cl)cc3)c2n1 [Compound 232] | 0.934 nM | 1.94 nM |
| CN1C[C@H](Oc2nc(N3CCC(C)(C(N)=O)CC3)c3nc(-c4ccccc4Cl)n(-c4ccc(Cl)cc4)c3n2)C[C@H]1CO [Compound 236] | 2.89 nM | 22.8 nM |
| NC(=O)C1CN(c2nc(N3CCC[C@H]3CO)nc3c2nc(-c2ccccc2Cl)n3-c2ccc(Cl)cc2)C1 [Compound 237] | 0.61 nM | 1.93 nM |
| CCN1CCN(c2nc(OCC(C)(C)O)nc3c2nc(-c2ccccc2Cl)n3-c2ccc(Cl)cc2)CC1 [Compound 240] | 5.79 nM | 12.2 nM |
